The record followed here is patent publication US9861593B2, “Method for treating or preventing dry eye disorders using alkylamino-polyhydroxyalkanes” (Dynamis Pharmaceuticals, Inc., priority 2008, dated 2018).

Each structure is given as a SMILES string.

This assay deals with goblet cells. Kind of assay: Goblet cell density in eye tissue of scopolamine-treated rats (dry eye model), PAS-stained thin sections, blinded grader ratings. It is filed as in vivo, Sprague-Dawley male rats. The protocol:
Sprague-Dawley male rats (7 weeks old, average weight=444 g) were treated with subcutaneous (SC) scopolamine hydrobromide in normal saline (n=30, 25 mg/kg injected 3× per day) or nothing (n=4). Scopolamine treated animals received either (a) 50 mM meglumine in the drinking water (n=10), (b) a 3× daily eyemist containing 2% by weight of meglumine hydrochloride (n=10) or (c) a 3× daily eyemist of normal saline (n=10). Treatment was for 4.5 weeks. One animal receiving scopolamine and the meglumine eyemist died just prior to the end of the study, and the eye tissues were not analyzed. Animals were euthanized and the eye orbit and surrounding tissue from both eyes were removed and placed in formalin. Tissues were embedded in paraffin, thin sections prepared, and stained with periodic acid Schiff to more easily visualize the goblet cells.
Animals not treated with scopolamine or with scopolamine and a saline eyemist had the lowest levels of goblet cells. […] The difference in goblet cell density between the untreated animals and those treated with oral meglumine was significant for one grader (p=0.04) and approached significance for the other (p=0.07). The meglumine eye mist referred to in Table 1 was obtained from Piedmont Chemical Industries (High Point, N.C.).

As to `CNC[C@H](O)[C@@H](O)[C@H](O)[C@H](O)CO` [oral meg, meglumine], where the note is “scopolamine-dosed rats, oral meglumine versus saline eyemist”, the “extent of regions containing goblet cells (FIG. 1)” value is “more extensive regions containing goblet cells”. Also, the “levels of goblet cells compared with the other groups (in words)” value (scopolamine-treated rats, 50 mM meglumine in the drinking water, 4.5 weeks) is “highest levels of goblet cells”.
